# In patent US10166216B2 (Rigel Pharmaceuticals, Inc., priority 2006, dated 2019):
# Biological target: Axl (Homo sapiens (Human), UniProt P30530)
# Experiment: Phospho-Akt in-cell Western assay (Axl-antibody cross-linking stimulation)
# Assay type: cell-based
# Conditions: inhibition of Axl activity, Hela cells, phospho-Akt readout; Table 1, formula (Ia1)
# In short: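 HeLa cells on poly-L-lysine, starved 24 hrs with Axl/Fc, pre-treated with compound 1 hr at 37° C., then stimulated 5 min with Axl primary/secondary antibody cluster. Fixed cells probed for phospho-Akt by chemiluminescent in-cell Western; signal normalized to crystal violet cell number.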
# Axl, sequence (P30530 26-894): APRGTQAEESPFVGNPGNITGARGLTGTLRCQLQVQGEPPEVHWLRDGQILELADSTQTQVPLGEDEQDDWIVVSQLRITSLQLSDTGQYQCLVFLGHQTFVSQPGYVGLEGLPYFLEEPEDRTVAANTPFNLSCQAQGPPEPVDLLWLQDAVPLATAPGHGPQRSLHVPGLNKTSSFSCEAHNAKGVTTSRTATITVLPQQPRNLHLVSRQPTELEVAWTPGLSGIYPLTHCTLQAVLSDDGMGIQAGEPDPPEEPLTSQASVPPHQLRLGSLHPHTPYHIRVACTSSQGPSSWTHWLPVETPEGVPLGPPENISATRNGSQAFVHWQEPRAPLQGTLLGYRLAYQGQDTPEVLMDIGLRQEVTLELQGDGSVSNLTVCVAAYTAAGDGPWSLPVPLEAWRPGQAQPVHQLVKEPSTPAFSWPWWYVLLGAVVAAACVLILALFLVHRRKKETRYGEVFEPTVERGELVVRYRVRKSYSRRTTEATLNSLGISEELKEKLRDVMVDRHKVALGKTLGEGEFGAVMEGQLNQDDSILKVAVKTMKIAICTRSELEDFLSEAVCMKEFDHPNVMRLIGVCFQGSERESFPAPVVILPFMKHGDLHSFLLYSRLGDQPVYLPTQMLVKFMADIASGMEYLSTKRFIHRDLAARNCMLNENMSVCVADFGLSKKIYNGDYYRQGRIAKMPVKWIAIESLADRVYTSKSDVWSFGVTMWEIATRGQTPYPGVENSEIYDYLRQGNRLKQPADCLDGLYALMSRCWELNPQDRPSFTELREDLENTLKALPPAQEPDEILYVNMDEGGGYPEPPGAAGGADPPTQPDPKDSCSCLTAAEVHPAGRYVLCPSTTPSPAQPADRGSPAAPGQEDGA
row,IC50,SMILES
1,< 1000 nM,"Nc1nc(Nc2ccc(OCCN3CCCC3)cc2)nn1-c1ccc2ccccc2n1 [Compound 41, N^3-(4-(2-(pyrrolidin-1-yl)ethoxy)phenyl)-1-(quinolin-2-yl)-1H-1,2,4-triazole-3,5-diamine]"
2,< 1000 nM,"CC1CCCN1CCOc1ccc(Nc2nc(N)n(-c3cnc4ccccc4n3)n2)cc1 (stereo not shown) [Compound 21, N^3-(4-(2-(2-methylpyrrolidin-1-yl)ethoxy)phenyl)-1-(quinoxalin-2-yl)-1H-1,2,4-triazole-3,5-diamine]"
3,1000 to 10000 nM,"CNc1cccc(-n2nc(Nc3ccc(OCCN4CCCCC4)cc3)nc2N)n1 [Compound 35, 1-(6-(methylamino)pyridin-2-yl)-N^3-(4-(2-(piperidin-1-yl)ethoxy)phenyl)-1H-1,2,4-triazole-3,5-diamine]"
4,> 20000 nM,"Nc1nc(Nc2ccc(OCCN3CCCC3)cc2)nn1-c1nc2ccccc2[nH]1 [Compound 31, 1-(1H-benzo[d]imidazol-2-yl)-N^3-(4-(2-(pyrrolidin-1-yl)ethoxy)phenyl)-1H-1,2,4-triazole-3,5-diamine]"
5,< 1000 nM,"Nc1nc(Nc2ccc(OCCN3CCCC3)cc2)nn1-c1ncnc2ccsc12 [Compound 54, N^3-(4-(2-(pyrrolidin-1-yl)ethoxy)phenyl)-1-(thieno[3,2-d]pyrimidin-4-yl)-1H-1,2,4-triazole-3,5-diamine]"
6,> 20000 nM,"Nc1nc(Nc2ccc(OCCN3CCCC3)cc2)nn1-c1ccccc1F [Compound 34, 1-(2-fluorophenyl)-N^3-(4-(2-(pyrrolidin-1-yl)ethoxy)phenyl)-1H-1,2,4-triazole-3,5-diamine]"

# Same assay, conditions: inhibition of Axl activity, Hela cells, phospho-Akt readout; Table 5, formula (Ia3)
row,IC50,SMILES
1,< 1000 nM,"COc1cc2ncnc(-n3nc(Nc4ccc(N5CCOCC5)cc4)nc3N)c2cc1OC [Compound 158, 1-(6,7-dimethoxyquinazolin-4-yl)-N^3-(4-morpholinophenyl)-1H-1,2,4-triazole-3,5-diamine]"
2,> 20000 nM,"CCOC(=O)c1ccc(Nc2nc(NC)n(-c3ccccc3)n2)cc1 [Compound 247, 1-phenyl-N^3-(4-(ethyloxocarbonyl)phenyl)-N^5-methyl-1H-1,2,4-triazole-3,5-diamine]"
3,< 1000 nM,"Cc1csc2c(-n3nc(Nc4ccc(N5CCC(N6CC7CCC6C7)CC5)c(F)c4)nc3N)ncnc12 (stereo not shown) [Compound 260, 1-(7-methylthieno[3,2-d]pyrimidin-4-yl)-N^3-(3-fluoro-4-(4-(2-azabicyclo[2.2.1]heptan-2-yl)piperidin-1-yl)phenyl)-1H-1,2,4-triazole-3,5-diamine]"
4,< 1000 nM,"CN1CCC(c2ccc(Nc3nc(N)n(-c4nc5ccccc5c5ccccc45)n3)cc2)CC1 [Compound 213, 1-(phenanthridin-6-yl)-N^3-(4-(1-methylpiperidin-4-yl)phenyl)-1H-1,2,4-triazole-3,5-diamine]"

# Same assay, conditions: inhibition of Axl activity, Hela cells, phospho-Akt readout; Table 7, formula (Ia4)
row,IC50,SMILES
1,< 1000 nM,"Cc1csc2c(-n3nc(Nc4ccc5c(c4)CCC(N(C)C4CC6CCC4C6)CC5)nc3N)nc(Cl)nc12 (stereo not shown) [Compound 221, 1-(7-methyl-2-chlorothieno[3,2-d]pyrimidin-4-yl)-N^3-(7-(N-methyl-N-bicyclo[2.2.1]heptan-2-yl)amino-6,7,8,9-tetrahydro-5H-benzo[7]annulene-2-yl)-1H-1,2,4-triazole-3,5-diamine]"

# Same assay, conditions: inhibition of Axl activity, phospho-Akt in-cell Western assay
row,IC50,SMILES
1,< 1000 nM,"COc1cc2c(-n3nc(Nc4ccc(N5CCN(C6CC7CCC6C7)CC5)cc4)nc3N)nc(Cl)nc2cc1O (stereo not shown) [Compound 102, 4-(5-amino-3-(4-(4-(bicyclo[2.2.1]heptan-2-yl)piperazin-1-yl)phenylamino)-1H-1,2,4-triazol-1-yl)-2-chloro-6-methoxyquinazolin-7-ol]"
2,1000 to 10000 nM,"COc1cc2nc(Cl)nc(-n3nc(Nc4ccc(N5CCN(C6CC7CCC6C7)CC5)cc4)nc3N)c2cc1OC (stereo not shown) [Compound 101, N^3-(4-(4-(bicyclo[2.2.1]heptan-2-yl)piperazin-1-yl)phenyl)-1-(2-chloro-6,7-dimethoxyquinazolin-4-yl)-1H-1,2,4-triazole-3,5-diamine]"
3,1000 to 10000 nM,"Cc1csc2c(-n3nc(Nc4ccc(N5CCN(C6CC7CCC6C7)CC5)c(F)c4)nc3N)nc(Cl)nc12 (stereo not shown) [Compound 140, N^3-(4-(4-(bicyclo[2.2.1]heptan-2-yl)piperazin-1-yl)-3-fluorophenyl)-1-(2-chloro-7-methylthieno[3,2-d]pyrimidin-4-yl)-1H-1,2,4-triazole-3,5-diamine]"
4,1000 to 10000 nM,"Cc1csc2ncnc(-n3nc(Nc4ccc(N5CCN([C@H]6C[C@@H]7CC[C@H]6C7)CC5)cc4)nc3N)c12 [Compound 191, 1-(5-methylthieno[2,3-d]pyrimidin-4-yl)-N^3-(4-(4-((1S,2S,4R)-bicyclo[2.2.1]heptan-2-yl)-piperazin-1-yl)phenyl)-1H-1,2,4-triazole-3,5-diamine]"
5,< 1000 nM,"COc1cc2ncnc(-n3nc(Nc4ccc(N5CCN(C6CC7CCC6C7)CC5)cc4)nc3N)c2cc1OC (stereo not shown) [Compound 98, N^3-(4-(4-(bicyclo[2.2.1]heptan-2-yl)piperazin-1-yl)phenyl)-1-(6,7-dimethoxyquinazolin-4-yl)-1H-1,2,4-triazole-3,5-diamine]"
6,< 1000 nM,"CN1CCN(c2ccc(Nc3nc(N)n(-c4cc5c(nn4)-c4ccccc4CC5)n3)cc2)CC1 [Compound 108, 1-(5,6-dihydrobenzo[h]cinnolin-3-yl)-N^3-(4-(4-methylpiperazin-1-yl)phenyl)-1H-1,2,4-triazole-3,5-diamine]"
7,< 1000 nM,"COc1cc2cnc(-n3nc(Nc4ccc(N5CCN(C6CCCCC6)CC5)c(F)c4)nc3N)nc2cc1OC [Compound 181, 1-(6,7-dimethoxyquinazolin-2-yl)-N^3-(3-fluoro-4-(4-cyclohexylpiperazin-1-yl)phenyl)-1H-1,2,4-triazole-3,5-diamine]"
8,< 1000 nM,"COc1cc2c(-n3nc(Nc4ccc(N5CCN(C6CC7CCC6C7)CC5)c(F)c4)nc3N)ncnc2cc1O (stereo not shown) [Compound 106, 4-(5-amino-3-(4-(4-(bicyclo[2.2.1]heptan-2-yl)piperazin-1-yl)-3-fluorophenylamino)-1H-1,2,4-triazol-1-yl)-6-methoxyquinazolin-7-ol]"
9,< 1000 nM,"Cc1cc(Nc2nc(N)n(-c3nnc(C)c4ccsc34)n2)ccc1N1CCN(C2CC3CCC2C3)CC1 (stereo not shown) [Compound 217, 1-(4-methylthieno[3,2-d]pyridazin-7-yl)-N^3-(3-methyl-4-(4-(bicyclo[2.2.1]heptan-2-yl)-piperazin-1-yl)phenyl)-1H-1,2,4-triazole-3,5-diamine]"
10,1000 to 10000 nM,"Nc1nc(Nc2ccc(N3CCN(C4CC5CCC4C5)CC3)cc2)nn1-c1nc2ccccc2s1 (stereo not shown) [Compound 96, 1-(benzo[d]thiazol-2-yl)-N^3-(4-(4-(bicyclo[2.2.1]heptan-2-yl)piperazin-1-yl)phenyl)-1H-1,2,4-triazole-3,5-diamine]"
11,> 20000 nM,"COc1cc2ncnc(-n3nc(Nc4ccc(Cl)c(N5CCN(C(C)=O)CC5)c4)nc3N)c2cc1OC [Compound 120, 1-(4-(5-(5-amino-1-(6,7-dimethoxyquinazolin-4-yl)-1H-1,2,4-triazol-3-ylamino)-2-chlorophenyl)piperazin-1-yl)ethanone]"
12,> 20000 nM,"Nc1nc(Nc2ccc(N3CCN(C4CC5CCC4C5)CC3)cc2)nn1-c1ncnc2cc(-c3ccc(Cl)cc3)sc12 (stereo not shown) [Compound 186, 1-(6-(4-chlorophenyl)thieno[3,2-d]pyrimidin-4-yl)-N^3-(4-(4-(bicyclo[2.2.1]heptan-2-yl)-piperazin-1-yl)phenyl)-1H-1,2,4-triazole-3,5-diamine]"
13,< 1000 nM,Cc1csc2c(-n3nc(Nc4ccc(N5CCN(C6CC7CCC6C7)CC5)c(F)c4)nc3N)ncnc12 (stereo not shown) [Compound 194]
14,1000 to 10000 nM,"Cc1csc2c(-n3nc(Nc4ccc(N5CCN([C@H]6CC7CCC6C7)CC5)cc4)nc3N)nc(C=CCN3CCN(C)CC3)nc12 (stereo partly drawn) [Compound 240, 1-(7-methyl-2-(3-(4-methylpiperazin-1-yl)prop-1-enyl)thieno[3,2-d]pyrimidin-4-yl)-N^3-(4-(4-((2S)-bicyclo[2.2.1]heptan-2-yl)piperazin-1-yl)phenyl)-1H-1,2,4-triazole-3,5-diamine]"
15,< 1000 nM,"C[C@H]1CN(c2ccc(Nc3nc(N)n(-c4ncnc5ccsc45)n3)cc2F)CCN1[C@H]1C[C@@H]2CC[C@H]1C2 [Compound 255, 1-thieno[3,2-d]pyrimidin-4-yl-N^3-(3-fluoro-4-(3-(S)-methyl-4-((1S,2S,4R)-bicyclo[2.2.1]heptan-2-yl)piperazin-1-yl)phenyl)-1H-1,2,4-triazole-3,5-diamine]"
16,< 1000 nM,"COc1cc2c(-n3nc(Nc4ccc(N5CCN(C)CC5)c(F)c4)nc3N)ncnc2cc1O [Compound 117, 4-(5-amino-3-(3-fluoro-4-(4-methylpiperazin-1-yl)phenylamino)-1H-1,2,4-triazol-1-yl)-6-methoxyquinazolin-7-ol]"
17,1000 to 10000 nM,"CC(=O)N1CCN(c2ccc(Nc3nc(N)n(-c4nccc5ccccc45)n3)cc2)CC1 [Compound 88, 1-(4-(4-(5-amino-1-(isoquinolin-1-yl)-1H-1,2,4-triazol-3-ylamino)phenyl)piperazin-1-yl)ethanone]"
18,1000 to 10000 nM,"Nc1nc(Nc2ccc(N3CCN(C4CCCCC4)CC3)cc2)nn1-c1cc2c(nn1)-c1ccccc1CC2 [Compound 115, N^3-(4-(4-cyclohexylpiperazin-1-yl)phenyl)-1-(5,6-dihydrobenzo[h]cinnolin-3-yl)-1H-1,2,4-triazole-3,5-diamine]"
19,1000 to 10000 nM,"Nc1nc(Nc2ccc(N3CCN([C@H]4CC5CCC4C5)CC3)c(F)c2)nn1-c1cc(-c2ccccc2)ccn1 (stereo partly drawn) [Compound 230, 1-(4-phenylpyridin-2-yl)-N^3-(3-fluoro-4-(4-((2S)-bicyclo[2.2.1]heptan-2-yl)piperazin-1-yl)phenyl)-1H-1,2,4-triazole-3,5-diamine]"
20,< 1000 nM,"Nc1nc(Nc2ccc(N3CCN(C4CC5CCC4C5)CC3)cc2)nn1-c1nccc2occc12 (stereo not shown) [Compound 131, N^3-(4-(4-(bicyclo[2.2.1]heptan-2-yl)piperazin-1-yl)phenyl)-1-(furo[3,2-c]pyridin-4-yl)-1H-1,2,4-triazole-3,5-diamine]"
